Laboratory results taken from patent publication US20220401514A1, “ANTIMICROBIAL, BACTERIOPHAGE-DERIVED POLYPEPTIDES AND THEIR USE AGAINST GRAM-NEGATIVE AND ACID-FAST BACTERIA” (CONTRAFECT CORPORATION, priority 2019, published 2022).
≈ marks a conversion by molar mass, not a printed value.

Key:
[1] = test system: P. aeruginosa strain CFS-1292; assay: Checkerboard assay (FICI) with antibiotics, P. aeruginosa; assay type: cell-based, Pseudomonas aeruginosa; details: for Antibiotic FIC: P. aeruginosa CFS-1292; for Antibiotic MIC in checkerboard: P. aeruginosa CFS-1292, CAA + […] human serum
Protocol: Any known method to assess MIC may be used.
Checkerboards are constructed by first preparing columns of e.g., a 96-well polypropylene microtiter plate, wherein each well has the same amount of antibiotic diluted 2-fold along the horizontal axis. […] Bacteria are added to the drug combinations at concentrations of 1×10^5 […] in CAA, for example, with or without human serum or pulmonary surfactant. […] Summation fractional inhibitory concentrations (ΣFICs) are calculated for each drug and the minimum ΣFIC value (ΣFICmin) is used to determine the effect of the Chp peptide/antibiotic combination.
(§1) Checkerboard assays. […] Checkerboards were constructed by first preparing columns of a 96-well polypropylene microtiter plate, in which each well had the same amount of antibiotic diluted 2-fold along the horizontal axis. […] Summation fractional inhibitory concentration index (FICIs) were calculated for each drug and the minimum FICI was used to determine synergy. FICIs were calculated as follows: FICI=FIC A+FIC B, where FIC A is the MIC of each antibiotic in the combination/MIC of the each antibiotic alone, and FIC B is the MIC of each Chp peptide in the combination/MIC of each Chp peptide alone. The combination is considered synergistic when the FICI is ≤0.5, strongly additive when the FICI is >0.5 to <1, additive with the FICI is 1-<2, and antagonistic when the FICI is ≥2.
In the checkerboard assay, fractional inhibitory concentration index (FICI) values are calculated.

[2] = test system: Acinetobacter baumannii strain 30; assay: Checkerboard assay (FICI) with antibiotics, A. baumannii; assay type: cell-based; details: checkerboard
Protocol: as §1
The results are shown below in Tables 22-27.

[3] = test system: Klebsiella pneumoniae strain 1139; assay: Checkerboard assay (FICI) with antibiotics, K. pneumoniae; assay type: cell-based
Protocol: as §1

[4] = test system: carbapenem-resistant bacterial strains; assay: organism not typed; assay type: cell-based; details: carbapenem-resistant isolate PA23
Excerpt: Determination of Minimal Inhibitory Concentrations (MIC).

[5] = test system: Stenotrophomonas-containing biofilm on explanted hemodialysis catheters; assay: Antibiofilm activity in explanted hemodialysis catheters; assay type: cell-based, Stenotrophomonas spp.
Protocol: The explanted hemodialysis catheters were cut into equal length segments and bisected to expose the lumen.
The samples were treated for 4 hours at 37° C. before rinsing with Lactated Ringer's solution.
Three additional infected hemodialysis catheter samples were removed from two patients (one catheter from a first patient and two catheters from a second patient). […] The samples were incubated at 37° C. for 4 hours.

[6] = test system: P. aeruginosa strain PAO1; assay: MIC against PAO1 in Mueller-Hinton broth with 50% human plasma or human serum; assay type: cell-based, Pseudomonas aeruginosa; details: PAO1
LPS = assay: Endotoxin neutralization, limulus amoebocyte lysate (LAL) enzyme assay, LPS binding; assay type: biochemical; details: LPS 0.8 EU/mL
Protocol: CHEM. […] The standard reference samples contained only LPS dissolved in pyrogen-free water. Solutions were mixed well and incubated at 24° C. for 1 hour, and the manufacturers' test procedure for quantitative detection of endotoxins was followed.

Pseudomonas aeruginosa = assay: microbe, parasite or virus in culture; assay type: cell-based; details: P. aeruginosa (ATCC 27853); control agents of Table 8
Acinetobacter baumannii = assay: microbe, parasite or virus in culture; assay type: cell-based; details: A. baumanni (ATCC BAA-747); control agents of Table 8
Klebsiella pneumoniae = assay: microbe, parasite or virus in culture; assay type: cell-based; details: control agents of Table 8
[7] = test system: eight different strains of five species of Gram-negative bacteria; assay: MBEC in eight strains of five species of Gram-negative bacteria; assay type: cell-based; details: 24 h biofilm in LB, 16 h treatment
Protocol: Determination of Minimal Biofilm Eradicating Concentrations (MBEC). […] The OD600 of extracted crystal violet was determined. The MBEC value of each sample was determined as the minimum drug concentration required to remove >95% of biofilm biomass as assessed by crystal violet quantitation (in comparison to untreated controls).
MBEC values were likewise determined for Chp2, Chp2-M1, and Chp10-M1 in eight different strains of five species of Gram-negative bacteria. […] The films were then washed and stained with crystal violet to visualize the MBEC.

Escherichia coli = assay: microbe, parasite or virus in culture; assay type: cell-based; details: control agents of Table 8
Procedure, shortened: (§2)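 CAA + human serum as test medium; MIC read as lowest peptide concentration inhibiting growth.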

Enterobacter cloacae = assay: microbe, parasite or virus in culture; assay type: cell-based; details: E. cloacae (CCUG 63317); control agents of Table 8
Procedure, shortened: as §2

[8] = checkerboard, in combination with Chp4-M1
[9] = checkerboard, in combination with Chp6-M1
[10] = checkerboard, in combination with Chp10-M1

Question: What does the source list for C[C@@H](O)[C@H]1C(=O)N2C(C(=O)O)=C(S[C@@H]3CN[C@H](C(=O)N(C)C)C3)[C@H](C)[C@H]12 [meropenem, reference compound]?
Answer: Antibiotic FIC ([1]; combined with Chp2-M1): 0.25; Antibiotic MIC in checkerboard ([1]; combined with Chp2-M1): 4 µg/mL; Antibiotic FIC ([1]; combined with Chp2): 0.25; Antibiotic MIC in checkerboard ([1]; combined with Chp2): 4 µg/mL; Antibiotic FIC ([1]; combined with Chp4-M1): 0.25; Antibiotic MIC in checkerboard ([1]; combined with Chp4-M1): 4 µg/mL; Antibiotic FIC ([1]; combined with Chp6-M1): 0.25; Antibiotic MIC in checkerboard ([1]; combined with Chp6-M1): 4 µg/mL; Antibiotic FIC ([1]; combined with Chp10-M1): 0.25; Antibiotic MIC in checkerboard ([1]; combined with Chp10-M1): 2 µg/mL; Antibiotic FIC ([1]; combined with Unp2-M1): 0.25; Antibiotic MIC in checkerboard ([1]; combined with Unp2-M1): 4 µg/mL; Antibiotic FIC ([2]; in combination with Chp2): 0.25; Antibiotic FIC ([2]; in combination with Chp2-M1): 0.25; Antibiotic FIC ([2]; in combination with Chp4-M1): 0.25; Antibiotic FIC ([2]; in combination with Chp6-M1): 0.25; Antibiotic FIC ([2]; in combination with Chp10-M1): 0.125; Antibiotic FIC ([2]; in combination with Unp2-M1): 0.25; Antibiotic FIC [3, 8]: 0.125; Antibiotic MIC [3, 8]: 0.007812 µg/mL; Antibiotic FIC [3, 9]: 0.25; Antibiotic MIC [3, 9]: 0.01562 µg/mL; Antibiotic FIC [3, 10]: 0.125; Antibiotic MIC [3, 10]: 0.01562 µg/mL; Antibiotic FIC ([3]; checkerboard, in combination with Unp2-M1): 0.03125; Antibiotic FIC ([3]; combined with Chp2): 0.25; Antibiotic MIC in checkerboard ([3]; combined with Chp2): 0.01562 µg/mL; Antibiotic FIC ([3]; combined with Chp2-M1): 0.25; Antibiotic MIC in checkerboard ([3]; combined with Chp2-M1): 0.01562 µg/mL; MIC [4]: 8 µg/mL (≈ 20.9 µM); eradication of biofilm on three additional catheter samples ([5]; Chp2-M1 1 μg/mL and 10 μg/mL, meropenem 1 μg/mL): did not eliminate biofilm; log10 CFU/g ([5]; second catheter sample from the second patient, 1 μg/mL, 4 hours): 3.16 log10 CFU/g

Question: For daptomycin, which “eradication of catheter biofilm” value ([5]; first catheter sample, 4 hours at 37° C., Chp2-M1 10 μg/mL, CF-301 and daptomycin 1 μg/mL) is on record?
Answer: did not

Question: And the “Log10 CFU/g for Catheter Sample #2 enumerated after 24 hours of incubation at 37 °C.” value ([5]; treatment at 1 μg/mL)?
Answer: 3.72 Log10 CFU/g

Question: What about the “Log10 CFU/g for Catheter Sample #3 enumerated after 24 hours of incubation at 37 °C.” value ([5]; treatment at 1 μg/mL) of the same compound?
Answer: 4.15 Log10 CFU/g

Question: What about the “Log10 CFU/g for Catheter Sample #1 (enumerated after 18 hours of incubation at 37 °C.)” value ([5]; treatment at 1 μg/mL, 4 hours at 37° C.) of the same compound?
Answer: 3.66 Log10 CFU/g

Question: Which “Minimal inhibitory concentration, Human Plasma” value ([6]; Mueller-Hinton broth with 50% human plasma) does the source give for LL-37 [reference compound] here?
Answer: >64 µg/mL

Question: What about the “Minimal inhibitory concentration, Human Serum” value ([6]; Mueller-Hinton broth with human serum) of the same compound?
Answer: >64 µg/mL

Question: And the LPS binding (LPS; […]-64 μg/mL, 24° C., 1 hour)?
Answer: dose-dependent increases in LPS binding

Question: And the “% LPS Bound” value (LPS; peptide concentration 0.5 μg/mL)?
Answer: 90.6%

Question: And the “% LPS Bound” value (LPS; peptide concentration 1 μg/mL)?
Answer: 92.2%

Question: And the “% LPS Bound” value (LPS; peptide concentration 2 μg/mL)?
Answer: 92.9%

Question: And the “% LPS Bound” value (LPS; peptide concentration 4 μg/mL)?
Answer: 92.3%

Question: And the “% LPS Bound” value (LPS; peptide concentration 8 μg/mL)?
Answer: 92.4%

Question: And the “% LPS Bound” value (LPS; peptide concentration 16 μg/mL)?
Answer: 92.1%

Question: And the “% LPS Bound” value (LPS; peptide concentration 32 μg/mL)?
Answer: 87.3%

Question: What about the “% LPS Bound” value (LPS; peptide concentration 64 μg/mL) of the same compound?
Answer: 75.4%

Question: What about the “MIC (in brackets beside MBEC)” value (Pseudomonas aeruginosa) of the same compound?
Answer: (16) μg/mL

Question: And the “MIC (in brackets beside MBEC)” value (Acinetobacter baumannii)?
Answer: (16) μg/mL

Question: And the “MIC (in brackets beside MBEC)” value (Klebsiella pneumoniae; K. pneumoniae (ATCC 700603))?
Answer: (16) μg/mL

Question: And the “MIC (in brackets beside MBEC)” value (Klebsiella pneumoniae; K. pneumoniae (KP1))?
Answer: (16) μg/mL

Question: What about the MBEC ([7]; A. baumanni (ATCC BAA-747)) of the same compound?
Answer: 0.25 µg/mL

Question: What about the MBEC ([7]; E. cloacae (CCUG 63317)) of the same compound?
Answer: 8 µg/mL

Question: And the MBEC ([7]; E. coli (ATCC 25922))?
Answer: 16 µg/mL

Question: What about the MBEC ([7]; E. coli (ATCC 35329)) of the same compound?
Answer: 16 µg/mL

Question: What about the MBEC ([7]; E. coli (EC2)) of the same compound?
Answer: 8 µg/mL

Question: And the MBEC ([7]; K. pneumoniae (ATCC 700603))?
Answer: 32 µg/mL

Question: And the MBEC ([7]; K. pneumoniae (KP1))?
Answer: 16 µg/mL

Question: And the MBEC ([7]; P. aeruginosa (ATCC 27853))?
Answer: 8 µg/mL

Question: What about the “MIC (in brackets beside MBEC)” value (Escherichia coli; E. coli (ATCC 25922)) of the same compound?
Answer: (16) μg/mL

Question: What about the “MIC (in brackets beside MBEC)” value (Escherichia coli; E. coli (ATCC 35329)) of the same compound?
Answer: (16) μg/mL

Question: What about the “MIC (in brackets beside MBEC)” value (Escherichia coli; E. coli (EC2)) of the same compound?
Answer: (16) μg/mL

Question: What about the “MIC (in brackets beside MBEC)” value (Enterobacter cloacae) of the same compound?
Answer: (16) μg/mL
